Where no end group is shown, it is not given here.
Experiments:
Type in all cases: in vivo
[1] = system: ovariectomized rat osteoporosis model (OVX); test: Experiment 1 (administration schedule 1): BMD of left proximal tibia by pQCT in OVX rats; conditions: for BMD of the left leg tibia (4 mm slice from proximal end) at intermediate autopsy: Experiment 1, FIG. 1, oral sole administration from next day of OVX, intermediate autopsy 56 days after OVX; for BMD of the left leg tibia on the 83rd day, in combination with PTH / BMD of the left leg tibia on the 83rd day, each alone: Experiment 1, FIG. 3; for BMD of the left leg tibia on the 83rd day, in combination with PTH: bone resorption inhibitor 83 days orally plus PTH 10 μg/kg s.c. from 57th day, versus PTH alone; for BMD of the left leg tibia on the 83rd day, each alone: sole administration, OVX-induced BMD loss
From the text: (§1) For the purpose of clarifying the characteristics, the effect of a cathepsin K inhibitor (a bone resorption inhibitor) in combination with a type of PTH (a bone formation stimulator) was examined using an ovariectomized rat osteoporosis model (abbreviated as OVX hereafter). The effect of a bisphosphonate (BP) in combination with a type of PTH was also examined. The effects were compared with each other.
(§2) In the following examples, PTH (1-34) is abbreviated as PTH unless specified. 2) Test Method Experiment 1 (Administration Schedule 1): Administration in Combination with PTH After Repeated Administration of Bone Resorption Inhibitor
(§3) Female retired rats (F344/NSlc) were used. At the age of 6 months, 87 rats were assigned to OVX (ovariectomy) and the other 10 rats were assigned to sham operation.
(§4) Another 15 rats were assigned to OVX and 5 rats were assigned to sham operation, in order to these groups to an autopsy in the course.
(§5) To the group the compound was administered; a bone resorption inhibitor was administered orally from the next day of OVX over a period of 83 days.
[…] Other groups to which the compound was administered, a bone resorption inhibitor was administered orally, and PTH or vehicle (saline containing 0.1% BSA) was administered subcutaneously, 55 days after OVX. […] The interval between the first and the second administration was 5-7 hours.
(§6) PTH was administered by subcutaneous injection from the back three times a week by a dose of 10 μg/kg from the 57th day after OVX. The drugs were administed according to the grouping of table 1.
(§7) In the group in which the compound was administered, on the 83rd day after OVX, BMD of tibia, lumbar BMD, concentration of urinary C-terminal telopeptide of type I collagen (CTX) and serum osteocalcin (OC) were measured. In the autopsy groups, concentration of urinary CTX and serum OC were measured on samples from the 55th day.
The BMD was determined by measurement device of peripheral BMD (pQCT: peripheral Quantitative Computed Tomography, XCT-Research SA+Stratec Medizintechnik GmbH, version 5.40) with voxel size 0.12 mm. The BMD of the left proximal tibia (at a point 4 mm from the proximal end) was measured.
(§8) In order to compare the sham group and the OVX control group, t-test (EXSAS (version 6.1), ARM SYSTEX CO., LTD.); in order to compare the effectiveness of the test compounds, Tukey test (EXSAS (version 6.1), ARM SYSTEX CO., LTD.), were used respectively. Less than 5% was assumed to be a significant difference.

[2] = system: ovariectomized rat osteoporosis model (OVX); test: Experiment 1: serum osteocalcin (OC) concentration, bone formation marker, in OVX rats; conditions: for serum OC concentration (bone formation marker) at intermediate autopsy: Experiment 1, FIG. 2, repeated oral administration for 55 days; for serum OC concentration on the 83rd day, in combination with PTH: combination with PTH compared with PTH sole administration
From the text: as §1, §2, §3, §4, §5
On 55 days after OVX, the autopsy was done in autopsy group. Other groups to which the compound was administered, a bone resorption inhibitor was administered orally, and PTH or vehicle (saline containing 0.1% BSA) was administered subcutaneously, 55 days after OVX. […] The interval between the first and the second administration was 5-7 hours.
as §6, §7
Fifty-five days after administration, in the autopsy, collected serum was used to measure the serum OC concentration with a kit for OC measurement (BIOTRAK; Osteocalcin, rat ELISA system).
as §8

[3] = system: ovariectomized rat osteoporosis model (OVX); test: Experiment 1: urinary CTX concentration, bone resorption marker, in OVX rats; conditions: Experiment 1, FIG. 4; for urinary CTX concentration on the 83rd day, combination administration with PTH: in combination with PTH
From the text: For the purpose of clarifying the characteristics, the effect of a cathepsin K inhibitor (a bone resorption inhibitor) in combination with a type of PTH (a bone formation stimulator) was examined using an ovariectomized rat osteoporosis model (abbreviated as OVX hereafter). The effect of a bisphosphonate (BP) in combination with a type of PTH was also examined. The effects were compared with each other. • (1) a solution of the compound (I): […] In the following examples, PTH (1-34) is abbreviated as PTH unless specified. 2) Test Method Experiment 1 (Administration Schedule 1): Administration in Combination with PTH After Repeated Administration of Bone Resorption Inhibitor Female retired rats ([…] used. At the age of 6 months, 87 rats were assigned to OVX (ovariectomy) and the other 10 rats were assigned to sham operation. To the group the compound was administered; a bone resorption inhibitor was administered orally from the next day of OVX over a period of 83 days. […] On 55 days after OVX, the autopsy was done in autopsy group. Other groups to which the compound was administered, a bone resorption inhibitor was administered orally, and PTH or vehicle (saline containing 0.1% BSA) was administered subcutaneously, 55 days after OVX. […] The interval between the first and the second administration was 5-7 hours. PTH was administered by subcutaneous injection from the back three times a week by a dose of 10 μg/kg from the 57th day after OVX. The drugs were administed according to the grouping of table 1. In the group in which the compound was administered, on the 83rd day after OVX, BMD of tibia, lumbar BMD, concentration of urinary C-terminal telopeptide of type I collagen (CTX) and serum osteocalcin (OC) were measured. In the autopsy groups, concentration of urinary CTX and serum OC were measured on samples from the 55th day. Urine was collected before the day of an autopsy, and urinary CTX was measured with a kit for rat CTX measurement (RatLaps ELISA; nordicbioscience). In measurement of absorbance, microplate reader (SPECTRA MAX 250, Japan Molecular Devices Inc.) was used. […] In order to compare the sham group and the OVX control group, […] CO., LTD.); in order to compare the effectiveness of the test compounds, Tukey test ([…] CO., LTD.), were used respectively. Less than 5% was assumed to be a significant difference.

[4] = system: ovariectomized rat osteoporosis model (OVX); test: Experiment 2 (administration schedule 2): BMD of tibia by pQCT in OVX rats; conditions: Experiment 2, FIG. 5; for BMD of the tibia on the 83rd day, each alone: 83 days from next day of OVX, sole administration
[5] = system: ovariectomized rat osteoporosis model (OVX); test: Experiment 2: urinary CTX concentration in OVX rats; conditions: Experiment 2, FIG. 6

Row | Compound | BMD of the left leg tibia (4 mm slice from proximal end) at intermediate autopsy [1] | BMD of the left leg tibia on the 83rd day, in combination with PTH [1] | BMD of the left leg tibia on the 83rd day, each alone [1] | serum OC concentration (bone formation marker) at intermediate autopsy [2] | serum OC concentration on the 83rd day, in combination with PTH ([2]; Experiment 1, FIG. 4) | urinary CTX concentration on the 83rd day, combination administration with PTH [3] | urinary CTX concentration on the 83rd day, sole administration [3] | urinary CTX inhibitory effect compared with compound (I) ([3]; sole and combination administration with PTH) | BMD of the tibia on the 83rd day, each alone [4] | inhibitory effect on urinary CTX compared with compound (I) [5] | effect on increase of BMD of tibia in combination with PTH ([4]; 83 days in combination with PTH 3 μg/kg s.c.) | urinary CTX concentration (bone resorption marker) on the 83rd day, combination administration ([5]; in combination with PTH) | urinary CTX concentration (bone resorption marker) on the 83rd day, sole administration ([5]; sole administration group) | serum OC concentration on the 83rd day, PTH sole administration ([2]; Experiment 1, FIG. 4, PTH 10 μg/kg s.c.)
1 | NCCCC(O)(P(=O)(O)O)P(=O)(O)O [ALN, Alendronate sodium hydrate] | showed an increasing effect of BMD in the tibia | did not show any additive effect | suppressed the OVX-induced BMD loss in the tibia | decreased | significantly decreased serum OC concentration | showed a urinary CTX inhibitory effect | showed a urinary CTX inhibitory effect | weaker than that of compound (I) | inhibited the reduction of BMD of tibia caused by OVX | weaker than that of compound (I) | – | – | – | –
2 | CN1CCS/C1=N\NC(=O)C(=O)C(NC(=O)C1CCCCCC1)C1CCOCC1.Cl (stereo not drawn) [compound (I), N-{3-[(2Z)-2-(3-methyl-1,3-thiazolidin-2-ylidene)hydrazino]-2,3-dioxo-1-tetrahydro-2H-pyran-4-ylpropyl}cycloheptanecarboxamide hydrochloride] | showed an increasing effect of BMD in the tibia | showed an additive effect in BMD of tibia | suppressed the OVX-induced BMD loss in the tibia | not decreased | did not decrease the serum OC concentration significantly | showed an inhibitory effect | showed an inhibitory effect | – | inhibited the reduction of BMD of tibia caused by OVX | – | greater than that of ALN in combination with PTH | has an inhibitory effect on urinary CTX concentration | has an inhibitory effect on urinary CTX concentration | –
3 | human PTH (1-34) amide (SVSEIQLMHNLGKHLNSMERVEWLRKKLQDVHNF-NH2; UniProt P01270 32-65, looked up, fragment) [partial peptide of PTH, bone formation stimulator (APC Lot.N05129A1)] | – | – | suppressed the OVX-induced BMD loss in the tibia | – | – | – | – | – | inhibited the reduction of BMD of tibia caused by OVX | – | – | – | – | increased

Reference: patent US7632813B2, “Bone densifying agent characterized by use of cathepsin K inhibitor with PTH” (Ono Pharmaceutical Co., Ltd., priority 2004, dated 2009)
